2 molecules from publication PMC11354310, “The Discovery of a Specific CKIP-1 Ligand for the Potential Treatment of Disuse Osteoporosis” (International Journal of Molecular Sciences, 2024) can be followed below.

Test [1] addresses T1, CKIP-1 (casein kinase 2 interacting protein-1) (Homo sapiens, UniProt Q53GL0).
T1 construct: gene PLEKHO1; GST-CKIP-1-C1 (C-terminal leucine zipper region, 345–409)
T1 sequence (Q53GL0 345-409): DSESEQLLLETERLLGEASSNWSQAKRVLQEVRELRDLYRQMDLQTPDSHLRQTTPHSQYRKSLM
The test is described as follows: SPR (Biacore T200, GST-CKIP-1-C1 captured on CM5 via anti-GST); supported by CETSA in HEK293T cells with Flag-CKIP-1. Format: binding.

Test [2] addresses T1, CKIP-1 (casein kinase 2 interacting protein-1). In words: SPR (Biacore T200, GST-CKIP-1-C1 captured on CM5 via anti-GST). Format: binding. A general note: In SPR one partner is held on a chip, and binding of the other changes the refractive index at the surface.

For orientation: Kd means the constant that tells how readily two partners part at equilibrium. Low values mean tighter binding, high ones weaker binding.

On to `CNC(=O)c1c(F)ccc(NS(=O)(=O)c2ccc(OC)nc2)c1-c1cc(C(F)(F)F)cc(C(F)(F)F)c1` [C77], for which binding in test [1] was characterised by a dissociation constant (Kd) of 27.1 nM.
In the case of `CNC(=O)C1(NC(=O)/C=C/c2cc(I)cc(OC)c2O)CC1` [C170], in test [2], the Kd amounted to 2170 nM.
